What was measured:
human thrombin = human thrombin (Homo sapiens, UniProt P00734); experiment: Determination of the inhibition constants (Ki) for thrombin; type: biochemical; conditions: human thrombin 100 pM, substrate S2238, pH 7.8, 37 degrees C., 60 min preincubation
Protocol: (§1) The inhibitors according to the invention have been tested according to various criteria to assess their efficacy, these preferably being the determination of the Ki value, of the IC50 value and of the partial thrombo-plastin time (PTT) in vivo and in vitro. To test the specificity, the IC50 values and Ki values with respect to various serine proteases, especially thrombin and trypsin, were measured. The stability of the substances according to the invention was determined by incubating a sample of the substance with a pure enzyme, preferably trypsin, chymotrypsin or papain, and with liver or intestinal homogenates, taking samples from the solutions at intervals of time, and preferably measuring by HPLC.
The inhibition constants (Ki) for the substances were determined by known enzyme kinetic methods. The human thrombin employed was determined to be 87% pure by means of active site titration. […] The inhibitor and enzyme were preincubated for 60 minutes, and the reaction was started by addition of the chromogenic substrate S2238. The kinetics were analyzed using the mathematical algorithm for tight binding, which with the aid of non-linear regression yielded Ki values (table) and the type of inhibition.

[1] = Determination of the subcutaneous absorption of substances (2) and (5), rabbits; type: in vivo; conditions: 2 mg/kg
Protocol: The substances were administered to rabbits subcutaneously in a dosage of 2 mg/kg. The maximum plasma concentration of (5) was reached after 5 minutes. The maximum plasma concentration of (2) was reached after 80 minutes.

[2] = Determination of the elimination half-lives t1/2 β, intravenous, rats; type: in vivo; conditions: rat, i.v., 5 mg/kg, plasma, calculated, second phase
Protocol: Determination of the Elimination Half-lives t1/2 β The thrombin inhibitors (2)-(5) in the table were administered intravenously to rats (5 in each group) at a dosage of 5 mg/kg. Blood samples were taken, and the time-dependent concentrations of thrombin inhibitors in the plasma were determined. Elimination takes place in two phases. The calculated elimination half-lives t1/2 β are compiled in it.

trypsin = target: T1, trypsin (Bos taurus, UniProt P00760); experiment: Ki with respect to trypsin (specificity of the inhibitors); type: biochemical
T1 sequence (P00760 24-246): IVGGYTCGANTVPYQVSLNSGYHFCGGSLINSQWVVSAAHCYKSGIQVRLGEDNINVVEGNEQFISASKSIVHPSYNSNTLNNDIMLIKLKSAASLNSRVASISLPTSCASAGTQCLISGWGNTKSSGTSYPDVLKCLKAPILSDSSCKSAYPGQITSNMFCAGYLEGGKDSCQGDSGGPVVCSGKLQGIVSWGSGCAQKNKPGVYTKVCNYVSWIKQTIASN
Protocol: as §1
The specificity of the inhibitors was determined with thrombin and trypsin. The specificity is defined as the ratio of the Ki values for trypsin and thrombin (table).

## COc1cc(C)c(S(=O)(=O)N[C@@H](CC(=O)O)C(=O)N[C@H](Cc2ccc(C(=N)N)cc2)C(=O)N2CCCCC2)c(C)c1C [(5)]
Human thrombin
  Ki: 2.5 nM
[1]; rabbit, plasma, sc, read-out: time to maximum plasma concentration (converted)
  Tmax: 5 min
[1]; s.c.
  duration of effective plasma level: 3 h
[2]
  half-life: 19 min
trypsin
  Ki: 312 nM

— patent US5571844A, “Amidinophenylalanine derivatives, a process for their preparation, their use and compositions containing these as anticoagulants” (Behringwerke Aktiengesellschaft, priority 1993, dated 1996)
